Test results published in EP0549857A1, “Antibacterial quinolone carboxylic acid derivatives” (KOREA RESEARCH INSTITUTE OF CHEMICAL TECHNOLOGY, priority 1991, dated 1993).
Values after ≈ are worked out from the molar mass of the structure shown. Like-named read-outs stand apart in the source and are kept apart here.

Legend:
[1] = system: Streptococcus pyogenes 308A; experiment: In vitro anti-bacterial activity test (MIC, two-fold agar dilution); assay type: cell-based; conditions: Mueller-Hinton agar, 10⁷ CFU/mℓ, 37°C, 18 hours, read-out: MIC
[2] = system: Streptococcus pyogenes 77A; experiment: as above; assay type: cell-based; conditions: Streptococcus pyogenes 77A; Mueller-Hinton agar, 10⁷ CFU/mℓ, 37°C, 18 hours; read-out: MIC
[3] = system: Streptococcus faecium MD 8b; experiment: as above; assay type: cell-based; conditions: Enterococcus faecium, MD8B; Streptococcus faecium MD 8b; Mueller-Hinton agar, 10⁷ CFU/mℓ, 37°C, 18 hours; read-out: MIC
[4] = system: Staphylococcus aureus SG 511; experiment: as above; assay type: cell-based; conditions: SG511; Staphylococcus aureus SG 511; Mueller-Hinton agar, 10⁷ CFU/mℓ, 37°C, 18 hours; read-out: MIC
[5] = system: Staphylococcus aureus 285; experiment: as above; assay type: cell-based; conditions: Staphylococcus aureus 285; Mueller-Hinton agar, 10⁷ CFU/mℓ, 37°C, 18 hours; read-out: MIC
[6] = system: Staphylococcus aureus 503; experiment: as above; assay type: cell-based; conditions: Staphylococcus aureus 503; Mueller-Hinton agar, 10⁷ CFU/mℓ, 37°C, 18 hours; read-out: MIC
Escherichia coli O 55 = experiment: as above; assay type: cell-based; conditions: O55, Mueller-Hinton agar, 10⁷ CFU/mℓ, 37°C, 18 hours, read-out: MIC
Escherichia coli DC 0 = experiment: as above; assay type: cell-based; conditions: DC0, Mueller-Hinton agar, 10⁷ CFU/mℓ, 37°C, 18 hours, read-out: MIC
Escherichia coli DC 2 = experiment: as above; assay type: cell-based; conditions: DC2, Mueller-Hinton agar, 10⁷ CFU/mℓ, 37°C, 18 hours, read-out: MIC
Escherichia coli OTEM = experiment: as above; assay type: cell-based; conditions: Mueller-Hinton agar, 10⁷ CFU/mℓ, 37°C, 18 hours, read-out: MIC
Escherichia coli 1507E = experiment: as above; assay type: cell-based; conditions: Mueller-Hinton agar, 10⁷ CFU/mℓ, 37°C, 18 hours, read-out: MIC
[7] = system: Pseudomonas aeruginosa 9027; experiment: as above; assay type: cell-based; conditions: Pseudomonas aeruginosa 9027; Mueller-Hinton agar, 10⁷ CFU/mℓ, 37°C, 18 hours; read-out: MIC
[8] = system: Pseudomonas aeruginosa 1592E; experiment: as above; assay type: cell-based; conditions: Mueller-Hinton agar, 10⁷ CFU/mℓ, 37°C, 18 hours, read-out: MIC
[9] = system: Pseudomonas aeruginosa 1771; experiment: as above; assay type: cell-based; conditions: Pseudomonas aeruginosa 1771; Mueller-Hinton agar, 10⁷ CFU/mℓ, 37°C, 18 hours; read-out: MIC
[10] = system: Pseudomonas aeruginosa 1771M; experiment: as above; assay type: cell-based; conditions: 18 h
Salmonella typhimurium = experiment: as above; assay type: cell-based; conditions: Salmonella enterica, Mueller-Hinton agar, 10⁷ CFU/mℓ, 37°C, 18 hours, read-out: MIC
[11] = system: Klebsiella aerogenes 1082E; experiment: as above; assay type: cell-based; conditions: Mueller-Hinton agar, 10⁷ CFU/mℓ, 37°C, 18 hours, read-out: MIC
[12] = system: Klebsiella aerogenes 1522E; experiment: as above; assay type: cell-based; conditions: Mueller-Hinton agar, 10⁷ CFU/mℓ, 37°C, 18 hours, read-out: MIC
Enterobacter cloacae P99 = experiment: as above; assay type: cell-based; conditions: Mueller-Hinton agar, 10⁷ CFU/mℓ, 37°C, 18 hours, read-out: MIC
[13] = system: Enterobacter cloacae 1321E; experiment: as above; assay type: cell-based; conditions: Mueller-Hinton agar, 10⁷ CFU/mℓ, 37°C, 18 hours, read-out: MIC
P. mirabilis = experiment: Preventive effect on the systemic infection; assay type: in vivo; conditions: Proteus mirabilis, in Mus musculus, P. mirabilis intraperitoneal infection, NMRI mice, survival on day 7, probit analysis, read-out: ED₅₀
Protocol: (§1) 10 fold of the pathogen which leads to 100% lethality were injected intraperitoneally to male and female NMRI mice weighing 18 to 20g. Immediately and after 4 hours, the dose of test compounds which was determined by two-fold serial dilution method was administered orally or subcutaneously; and on day 7, the effectiveness was evaluated in terms of ED₅₀ calculated from the number of survived mice by the probit analysis.

S. aureus 17740 = experiment: Preventive effect on the systemic infection; assay type: in vivo; conditions: Staphylococcus aureus, 17740, in Mus musculus, S. aureus 17740 intraperitoneal infection, NMRI mice, survival on day 7, probit analysis, read-out: ED₅₀
Protocol: as §1

in vivo = conditions: female, ICR, mouse
Protocol: Test compounds were administered to female ICR mice weighing 20 to 25g and on day 14, LD₅₀ was calculated from the number of survived mice by the probit analysis.

[14] = Oral Administration immediately and after 4 hours
[15] = Subcutaneous Injection immediately and after 4 hours

| Compound | MIC [1] | MIC [2] | MIC [3] | MIC [4] | MIC [5] | MIC [6] | MIC (Escherichia coli O 55) | MIC (Escherichia coli DC 0) | MIC (Escherichia coli DC 2) | MIC (Escherichia coli OTEM) | MIC (Escherichia coli 1507E) | MIC [7] | MIC [8] | MIC [9] | MIC [10] | MIC (Salmonella typhimurium) | MIC [11] | MIC [12] | MIC (Enterobacter cloacae P99) | MIC [13] | also measured |
| --- | --- | --- | --- | --- | --- | --- | --- | --- | --- | --- | --- | --- | --- | --- | --- | --- | --- | --- | --- | --- | --- |
| NC1CCC2=C1CN(c1c(F)cc3c(=O)c(C(=O)O)cn(C4CC4)c3c1F)C2 (centres unmarked) [Example 1, 7-[6-amino-3-azabicyclo[3,3,0]oct-1(5)ene-3-yl]-1-cyclopropyl-6,8-difluoro-1,4-dihydro-4-oxoquinoline-3-carboxylic acid] | 0.391 µg/mL (≈ 1.01 µM) | 0.098 µg/mL (≈ 0.253 µM) | 0.098 µg/mL (≈ 0.253 µM) | 0.098 µg/mL (≈ 0.253 µM) | 0.098 µg/mL (≈ 0.253 µM) | 0.049 µg/mL (≈ 0.126 µM) | 0.025 µg/mL (≈ 0.0645 µM) | 0.391 µg/mL (≈ 1.01 µM) | 0.098 µg/mL (≈ 0.253 µM) | 0.049 µg/mL (≈ 0.126 µM) | 0.049 µg/mL (≈ 0.126 µM) | 1.56 µg/mL (≈ 4.03 µM) | 1.56 µg/mL (≈ 4.03 µM) | 1.56 µg/mL (≈ 4.03 µM) | 0.391 µg/mL (≈ 1.01 µM) | 0.049 µg/mL (≈ 0.126 µM) | 0.007 µg/mL (≈ 0.0181 µM) | 0.098 µg/mL (≈ 0.253 µM) | 0.098 µg/mL (≈ 0.253 µM) | 0.025 µg/mL (≈ 0.0645 µM) | ED50 (P. mirabilis; [14]): 5.5 mg/kg; ED50 (P. mirabilis; [15]): 1.55 mg/kg; ED50 (S. aureus 17740; [14]): 105 mg/kg; ED50 (S. aureus 17740; [15]): 25 mg/kg; LD50 at 14 day (in vivo; ip): 720 mg/kg; LD50 at 14 day (in vivo; po): 4000 mg/kg |
| CNC1CCC2=C1CN(c1c(F)cc3c(=O)c(C(=O)O)cn(C4CC4)c3c1F)C2 (centres unmarked) [Example 2, 1-cyclopropyl-6,8-difluoro-7-[6-methylamino-3-azabicyclo[3,3,0]oct-1(5)ene-3-yl]-1,4-dihydro-4-oxoquinoline-3-carboxylic acid] | 0.195 µg/mL (≈ 0.486 µM) | 0.098 µg/mL (≈ 0.244 µM) | 0.098 µg/mL (≈ 0.244 µM) | 0.049 µg/mL (≈ 0.122 µM) | 0.098 µg/mL (≈ 0.244 µM) | 0.049 µg/mL (≈ 0.122 µM) | 0.013 µg/mL (≈ 0.0324 µM) | 0.781 µg/mL (≈ 1.95 µM) | 0.098 µg/mL (≈ 0.244 µM) | 0.098 µg/mL (≈ 0.244 µM) | 0.098 µg/mL (≈ 0.244 µM) | 3.12 µg/mL (≈ 7.78 µM) | 1.56 µg/mL (≈ 3.89 µM) | 1.56 µg/mL (≈ 3.89 µM) | 0.781 µg/mL (≈ 1.95 µM) | 0.391 µg/mL (≈ 0.974 µM) | 0.013 µg/mL (≈ 0.0324 µM) | 0.049 µg/mL (≈ 0.122 µM) | 0.049 µg/mL (≈ 0.122 µM) | 0.013 µg/mL (≈ 0.0324 µM) | ED50 (S. aureus 17740; [14]): 112 mg/kg; ED50 (S. aureus 17740; [15]): 27 mg/kg; LD50 at 14 day (in vivo; ip): 810 mg/kg; LD50 at 14 day (in vivo; po): 4100 mg/kg |
| NC1CCC2=C1CN(c1c(F)cc3c(=O)c(C(=O)O)cn(C4CC4)c3c1Cl)C2 (centres unmarked) [Example 3, 7-[6-amino-3-azabicyclo[3,3,0]oct-1(5)ene-3-yl]-1-cyclopropyl-8-chloro-6-fluoro-1,4-dihydro-4-oxoquinoline-3-carboxylic acid] | 0.195 µg/mL (≈ 0.483 µM) | 0.049 µg/mL (≈ 0.121 µM) | 0.098 µg/mL (≈ 0.243 µM) | 0.025 µg/mL (≈ 0.0619 µM) | 0.049 µg/mL (≈ 0.121 µM) | 0.049 µg/mL (≈ 0.121 µM) | 0.049 µg/mL (≈ 0.121 µM) | 0.781 µg/mL (≈ 1.93 µM) | 0.049 µg/mL (≈ 0.121 µM) | 0.098 µg/mL (≈ 0.243 µM) | 0.098 µg/mL (≈ 0.243 µM) | 1.56 µg/mL (≈ 3.87 µM) | 1.56 µg/mL (≈ 3.87 µM) | 1.56 µg/mL (≈ 3.87 µM) | 0.391 µg/mL (≈ 0.968 µM) | 0.049 µg/mL (≈ 0.121 µM) | 0.013 µg/mL (≈ 0.0322 µM) | 0.195 µg/mL (≈ 0.483 µM) | 0.098 µg/mL (≈ 0.243 µM) | 0.098 µg/mL (≈ 0.243 µM) | ED50 (P. mirabilis; [14]): 5.9 mg/kg; ED50 (P. mirabilis; [15]): 1.43 mg/kg; LD50 at 14 day (in vivo; ip): 731 mg/kg; LD50 at 14 day (in vivo; po): 4100 mg/kg |
